From patent US7709478B2, “Acylated 6,7,8,9-tetrahydro-5H-benzocycloheptenyl amines and their use as pharmaceutical agents” (sanofi-aventis Deutschland GmbH, priority 2001, dated 2010)
Counter-ions that a name gives are not always drawn.

Columns and labels:
eNOS promoter = experiment: Activation of eNOS transcription (eNOS promoter-luciferase reporter gene assay); type: cell-based, human; details: 18 h incubation; for EC50: EC50 of transcription induction ratio vs compound concentration, determined graphically, human endothelial cell line stably transfected with eNOS promoter-luciferase construct; for maximal fold induction / TIR(max): maximum transcription induction ratio (luciferase activity with compound / solvent alone), human endothelial cell line with eNOS promoter-luciferase construct; for maximal fold induction: read-out: TIR(max)
Experimental: Measurement of Activation of eNOS Transcription
Activation of eNOS transcription was measured as described in detail in Li et al. “Activation of protein kinase C alpha and/or epsilon enhances transcription of the human endothelial nitric oxide synthase gene”, Mol. Pharmacol. 1998; 53: 630-637.
Briefly, a 3.5 kB long fragment 5′ of the starting codon of the eNOS gene was cloned, sequenced and cloned in firefly luciferase expression plasmids to monitor activation of the eNOS promoter by reporter gene activity. A human endothelial cell line stable transfected and expressing this promoter-reporter construct was used for compound testing. Cells were incubated for 18 h with compounds.
All compounds were dissolved in sterile DMSO. A final concentration of 0.5% DMSO in complete medium was allowed. Induction of reporter gene expression in these cells was measured using a standard luciferase assay system (Promega, Cat. No E150) according to the manufacturer's instructions. Luciferase induction in cells incubated with compounds were compared to those incubated with solvent alone. The ratio of both activities (transcription induction ratio, TIR) was plotted as a function of compound concentration. Typically, TIR values started at low concentrations at a ratio of 1, indicating no compound effect, and extended up to a maximum TIR value TIR(max) which indicates the increase of the eNOS transcription. EC50 values of transcription induction ratios as a function of compound concentration were determined graphically.

| SMILES | EC50 (eNOS promoter) | maximal fold induction (eNOS promoter) | melting point | TIR(max) (eNOS promoter) |
| --- | --- | --- | --- | --- |
| O=C(NC1CCCc2ccccc2C1)c1ccc(F)cc1 (stereo not shown) [Compound 1, 4-FLUORO-N-(6,7,8,9-TETRAHYDRO-5H-BENZOCYCLOHEPTEN-6-YL)-BENZAMIDE] | 20 nM | 3.3 | 165 °C |  |
| O=C(NC1CCCc2ccccc2C1O)c1ccc(F)cc1 (stereo not shown) [Compound 2, 4-FLUORO-N-(5-HYDROXY-6,7,8,9-TETRAHYDRO-5H-BENZOCYCLOHEPTEN-6-YL)-BENZAMIDE] | 6000 nM | 2.2 | 156 °C |  |
| O=C(NC1CCCc2ccccc2C1)c1cccc(N2CCOCC2)c1 (stereo not shown) [Compound 108, 3-MORPHOLIN-4-YL-N-(6,7,8,9-TETRAHYDRO-5H-BENZOCYCLOHEPTEN-6-YL)-BENZAMIDE] | 14000 nM | 3.1 |  |  |
| CS(=O)(=O)Nc1cccnc1C(=O)NC1CCCc2ccccc2C1 (stereo not shown) [Compound 145, 3-METHANESULFONYLAMINO-PYRIDINE-2-CARBOXYLIC ACID (6,7,8,9-TETRAHYDRO-5H-BENZOCYCLOHEPTEN-6-YL)-AMIDE] | 3800 nM | 1.6 |  |  |
| COc1ccc(C(=O)NC2CCCc3ccccc3C2)c(OC)n1 (stereo not shown) [Compound 15, 2,6-DIMETHOXY-N-(6,7,8,9-TETRAHYDRO-5H-BENZOCYCLOHEPTEN-6-YL)-NICOTINAMIDE] | 779 nM | 3.1 |  |  |
| Cc1cc(C(=O)N[C@H]2CCCc3ccccc3C2)n(C)n1 [Compound 122, (S)-2,5-DIMETHYL-2H-PYRAZOLE-3-CARBOXYLIC ACID (6,7,8,9-TETRAHYDRO-5H-BENZOCYCLOHEPTEN-6-YL)-AMIDE] | 15 nM | 2.85 |  |  |
| Nc1nc(Cl)ccc1C(=O)NC1CCCc2ccccc2C1 (stereo not shown) [Compound 137, 2-AMINO-6-CHLORO-N-(6,7,8,9-TETRAHYDRO-5H-BENZOCYCLOHEPTEN-6-YL)-NICOTINAMIDE] | 90 nM | 3 |  |  |
| O=C(NC1CCCc2ccccc2C1)c1nc(Cl)ccc1Cl (stereo not shown) [Compound 141, 3,6-DICHLORO-PYRIDINE-2-CARBOXYLIC ACID (6,7,8,9-TETRAHYDRO-5H-BENZOCYCLOHEPTEN-6-YL)-AMIDE] | 250 nM | 3.2 |  |  |
| COc1ccc(C(=O)NC2CCCc3ccccc3C2)cn1 (stereo not shown) [Compound 102, 6-METHOXY-N-(6,7,8,9-TETRAHYDRO-5H-BENZOCYCLOHEPTEN-6-YL)-NICOTINAMIDE] | 83 nM | 2.9 |  |  |
| Nc1ncccc1C(=O)NC1CCCc2ccccc2C1 (stereo not shown) [Compound 25, 2-AMINO-N-(6,7,8,9-TETRAHYDRO-5H-BENZOCYCLOHEPTEN-6-YL)-NICOTINAMIDE HYDROCHLORIDE] | 31 nM | 3.1 |  |  |
| Nc1nccnc1C(=O)NC1CCCc2ccccc2C1 (single isomer, unassigned) [Compound 45, 3-AMINO-PYRAZINE-2-CARBOXYLIC ACID (6,7,8,9-TETRAHYDRO-5H-BENZOCYCLOHEPTEN-6-YL)-AMIDE] | 60 nM | 2.9 |  |  |
| O=C(NC1CCCc2ccccc2C1)c1ccc(F)cc1F (stereo not shown) [Compound 6, 2,4-DIFLUORO-N-(6,7,8,9-TETRAHYDRO-5H-BENZOCYCLOHEPTEN-6-YL)-BENZAMIDE] | < 80 nM | 3 |  |  |
| Cc1nc(C2CC2)sc1C(=O)N[C@H]1CCCc2ccccc2C1 [Compound 120, (S)-2-CYCLOPROPYL-4-METHYL-THIAZOLE-5-CARBOXYLIC ACID (6,7,8,9-TETRAHYDRO-5H-BENZOCYCLOHEPTEN-6-YL)-AMIDE] | 41 nM | 3.1 |  |  |
| O=C(NC1CCCc2ccccc2C1)c1cc(NCc2ccccc2)ccn1 (stereo not shown) [Compound 142, 4-BENZYLAMINO-PYRIDINE-2-CARBOXYLIC ACID (6,7,8,9-TETRAHYDRO-5H-BENZOCYCLOHEPTEN-6-YL)-AMIDE] | 3000 nM | 2.5 |  |  |
| Cc1nc2ccc(C(=O)N[C@H]3CCCc4ccccc4C3)cc2[nH]1 [Compound 7, (S)-2-METHYL-3H-BENZOIMIDAZOLE-5-CARBOXYLIC ACID (6,7,8,9-TETRAHYDRO-5H-BENZOCYCLOHEPTEN-6-YL)-AMIDE] | 75 nM | 3.3 | 206 °C |  |
| Cc1cncc(C(=O)NC2CCCc3ccccc3C2)c1 (stereo not shown) [Compound 91, 5-METHYL-N-(6,7,8,9-TETRAHYDRO-5H-BENZOCYCLOHEPTEN-6-YL)-NICOTINAMIDE] | 2300 nM | 2.9 |  |  |

| SMILES | EC50 (eNOS promoter) | maximal fold induction (eNOS promoter) | melting point | TIR(max) (eNOS promoter) |
| --- | --- | --- | --- | --- |
| Cc1c(C(=O)NC2CCCc3ccccc3C2)cnn1-c1ccccc1 (stereo not shown) [Compound 30, 5-METHYL-1-PHENYL-1H-PYRAZOLE-4-CARBOXYLIC ACID (6,7,8,9-TETRARYDRO-5H-BENZOCYCLOHEPTEN-6-YL)-AMIDE] | 20 nM |  |  | 3.5 |
| Cc1c(C(=O)NC2CCCc3ccccc3C2)cnn1-c1ccccc1 (single isomer, unassigned) [Compound 31, 5-METHYL-1-PHENYL-1H-PYRAZOLE-4-CARBOXYLIC ACID (6,7,8,9-TETRAHYDRO-5H-BENZOCYCLOHEPTEN-6-YL)-AMIDE] | 5000 nM | 2.8 |  |  |
| O=C(NC1CCCc2ccccc2C1)c1cccc(N2CCCCC2)c1 (stereo not shown) [Compound 106, 3-PIPERIDIN-1-YL-N-(6,7,8,9-TETRAHYDRO-5H-BENZOCYCLOHEPTEN-6-YL)-BENZAMIDE] | 4800 nM | 2.5 |  |  |
| CS(=O)(=O)Nc1cccc(C(=O)NC2CCCc3ccccc3C2)c1 (stereo not shown) [Compound 97, 3-METHANESULFONYLAMINO-N-(6,7,8,9-TETRAHYDRO-5H-BENZOCYCLOHEPTEN-6-YL)-BENZAMIDE] | 1000 nM | 2.5 |  |  |
| O=C(NC1CCCc2ccccc2C1)c1cnc(N2CCOCC2)nc1 (stereo not shown) [Compound 64, 2-MORPHOLIN-4-YL-PYRIMIDINE-5-CARBOXYLIC ACID (6,7,8,9-TETRAHYDRO-5H-BENZOCYCLOHEPTEN-6-YL)-AMIDE] | 16000 nM | 3.1 |  |  |
| Cc1cnc(C(=O)NC2CCCc3ccccc3C2)cn1 (single isomer, unassigned) [Compound 32, 5-METHYL-PYRAZINE-2-CARBOXYLIC ACID (6,7,8,9-TETRAHYDRO-5H-BENZOCYCLOHEPTEN-6-YL)-AMIDE] | 47 nM | 3 |  |  |
| O=C(NC1CCCc2ccccc2C1)c1ccc(Cl)nc1 (stereo not shown) [Compound 10, 6-CHLORO-N-(6,7,8,9-TETRAHYDRO-5H-BENZOCYCLOHEPTEN-6-YL)-NICOTINAMIDE] | 256 nM | 3 |  |  |
| CNc1nc(C)ccc1C(=O)NC1CCCc2ccccc2C1 (single isomer, unassigned) [Compound 124, 6-METHYL-2-METHYLAMINO-N-(6,7,8,9-TETRAHYDRO-5H-BENZOCYCLOHEPTEN-6-YL)-NICOTINAMIDE] | 6 nM |  |  | 2.9 |
| O=C(NC1CCCc2ccccc2C1)c1ccc2cc[nH]c2c1 (stereo not shown) [Compound 20, 1H—INDOLE-6-CARBOXYLIC ACID (6,7,8,9-TETRAHYDRO-5H-BENZOCYCLOHEPTEN-6-YL)-AMIDE] | 16 nM | 3.1 |  |  |
| Nc1ncccc1C(=O)NC1CCCc2ccccc2C1 (single isomer, unassigned) [Compound 24, 2-AMINO-N-(6,7,8,9-TETRAHYDRO-5H-BENZOCYCLOHEPTEN-6-YL)-NICOTINAMIDE] | 30 nM | 3.1 |  |  |
| N#Cc1ccc(C(=O)NC2CCCc3ccccc3C2)cn1 (stereo not shown) [Compound 21, 6-CYANO-N-(6,7,8,9-TETRAHYDRO-5H-BENZOCYCLOHEPTEN-6-YL)-NICOTINAMIDE] | 8200 nM | 2.6 |  |  |
| Cc1nc(C)c(C(=O)NC2CCCc3ccccc3C2)s1 (single isomer, unassigned) [Compound 29, 2,4-DIMETHYL-THIAZOLE-5-CARBOXYLIC ACID (6,7,8,9-TETRAHYDRO-5H-BENZOCYCLOHEPTEN-6-YL)-AMIDE] | 9600 nM |  |  | 3.4 |
| O=C(NC1CCCc2ccccc2C1)c1nc(NCc2ccccc2)ccc1Cl (stereo not shown) [143 B] | 28000 nM |  |  | 2.5 |
| O=C(NC1CCCc2ccccc2C1)c1ccc(F)cc1 (single isomer, unassigned; (-)) [Compound 1a, (−)-4-Fluoro-N-(6,7,8,9-tetrahydro-5H-benzocyclohepten-6-yl)-benzamide] | 1 nM |  |  | 3.2 |
| Cc1c(NS(C)(=O)=O)cccc1C(=O)NC1CCCc2ccccc2C1 (stereo not shown) [Compound 99, 3-METHANESULFONYLAMINO-2-METHYL-N-(6,7,8,9-TETRAHYDRO-5H-BENZOCYCLOHEPTEN-6-YL)-BENZAMIDE] | 2800 nM | 2.5 |  |  |
| Cc1ncsc1C(=O)NC1CCCc2ccccc2C1 (stereo not shown) [Compound 109, 4-METHYL-THIAZOLE-5-CARBOXYLIC ACID (6,7,8,9-TETRAHYDRO-5H-BENZOCYCLOHEPTEN-6-YL)-AMIDE] | 1800 nM | 2.8 |  |  |
